Columns and labels:
[1] = system: Mut^−/−; Tg^INS-MCK-Mut mice; settings: mouse, in vivo; for Mut^+/− Oxidation Rate / Mut^−/− Oxidation Rate: ip
Procedure: To further assess transgene function, the in vivo oxidative capacity of Mut^−/−; Tg^INS-MCK-Mut mice was measured through detecting metabolism of numerous 1-^13C labeled fatty acids to ^13CO2 via the Kreb's Cycle.
The in vivo effects of hepatic Mut deficiency were also assessed by measuring the oxidation of 1-^13C-methionine (FIG. 1I) and 1-^13C-glycine (FIG. 1J). These labels reflect hepatic mitochondrial function and the activity of the glycine cleavage system, both known to be impaired in MMA patients.
In Vivo Stable Isotope Oxidation Studies: Stable isotope studies were performed in 4 Mut−/−; Tg^INS-MCK-Mut and 4 control littermates. Closed circuit, constant volume respiratory chambers were used to collect and measure enrichment of ^13CO2 in mice, as described previously (Chandler and Venditti, 2009 and 2010, Manoli et al 2013). Mice received IP injections with tracer amounts (10 μl/g of [10 mg/ml] tracer solution) of 99.9% ^13C-isotopomers. Aliquots of air were removed every 5-10 min, while CO2 was continuously monitored. ^13CO2 enrichment was measured by isotope ratio mass spectroscopy (Metabolic Solutions, Nashua, N.H.). […] Cumulative percentage of total isotopomer dose metabolized was subsequently calculated, using the formula: Percentage of dose metabolized=total ^13C excreted [mmol/dose (mmol)×100%].
The following 1-C labeled stable isotopes were used: ^13C Sodium Propionate, ^13C-Methionine, ^13C-Glycine, ^13C-Pyruvate, ^13C-Octanoate, ^13C-α-Ketoisocaproic Acid, ^13C-Leucine, ^13C-Acetate, ^13C-Phenylalanine. Stable isotopomers were purchased from Cambridge Isotope Laboratories. Variables were compared for each substrate and time point using a two-sided unpaired t-test and considered statistically significant at p<0.05.
These studies were conducted using N=5 mice with MMA (Mut^−/−; Tg^INS-MCK-Mut mutants) and N=5 sex matched littermates (controls). Each mouse was injected with the labels depicted in Table 3 and the oxidation rates and kinetics of ^13C/^12C CO2 enrichment were analyzed.

[2] = Test drink solution stability; format: physicochemical; settings: 1 mg/ml in tap water
[3] = system: methylmalonic acidemia patients and healthy volunteers; settings: human, in vivo
Excerpt: Percent Dose Oxidized at each time point=CO2 production rate×Σ(APE (t)/(mmol C^13 administered)×100, where CO2 production rate was the one measured by the indirect calorimetry on the same day just prior to the isotope study.
The test cohort was comprised of 41 patients with MMA (26 mut0, aged 3-37 years, 6 mut-, aged 9-30 years, and 9 cblA, aged 4-41 years), 8 healthy volunteers, and 8 heterozygote parents of affected individuals. Within the affected group, 12 individuals had previously received a liver (LT), kidney (KT), combined liver-kidney (LKT), or partial (graft) liver-kidney (pLKT) transplant (2 LT, 3 KT, 6 LKT, 1 pLKT).
A metabolic cart (ParvoMedics TrueOne2400 Sandy, Utah) was used to measure subject O2 consumption (VO2), CO2 production (VCO2), and resting energy expenditure (REE) at supine posture for 25-35 minutes. Seven of the healthy volunteers were tested three times over a two-month period to evaluate inter- and intra-individual variability.
A dose of 0.5 mg/kg (or 0.5 ml/kg) body weight (BW) was administered to the study subjects orally or through a G-tube as a bolus over no more than 2 minutes, followed by similar amount of water consumption. […] Measurements of the isotopic ratio (^13C/^12C) in expired gas were determined by isotope ratio mass spectrometry (Metabolic Solutions, Nashua, N.H.).

Row | Mut^+/− Oxidation Rate [1] | Mut^−/− Oxidation Rate [1] | Cumulative % of total dose metabolized, Controls, mean (SD) [1] | Cumulative % of total dose metabolized, Mutants, mean (SD) [1] | Compound | also measured
1 |  |  | 33.95 (3.66) % | 24.00 (12.95) % | CC(C)CC(=O)[13C](=O)[O-].[Na+] [Sodium 1-^13C-α-Ketoisocaproic Acid] | 
2 |  |  | 52.16 (17.06) % | 52.99 (9.85) % | C[13C](=O)C(=O)O [Sodium 1-^13C-Pyruvate] | 
3 |  |  | 3.68 (2.34) % | 3.32 (0.85) % | CC(C)C[13C@H](N)C(=O)O [L-2-^13C-Leucine] | 

Continued, compound first:

Row | Compound | Mut^+/− Oxidation Rate [1] | Mut^−/− Oxidation Rate [1] | Cumulative % of total dose metabolized, Controls, mean (SD) [1] | Cumulative % of total dose metabolized, Mutants, mean (SD) [1] | also measured
4 | NC[13C](=O)O [1-^13C-glycine] | 0.14 +/− 0.003 (n = 3) μmol/g/hour | 0.07 +/− 0.007 (n = 4) μmol/g/hour |  |  | oxidation of label (release of label) [1]: impaired ability to release label
5 | CSCC[C@H](N)[13C](=O)O [1-^13C-methionine] | 11.5 +/− 3.4 (n = 4) μmol/g/hour | 6.5 +/− 2.5 (n = 4) μmol/g/hour |  |  | oxidation of label (release of label) [1]: impaired ability to release label
6 | C[13C](=O)[O-].[Na+] [1-^13C-acetate, Sodium 1-^13C-Acetate] | 69.5 +/− 17.7 (n = 5) μmol/g/hour | 88.2 +/− 26.5 (n = 5) μmol/g/hour | 38.02 (11.79) % | 42.23 (14.32) % | 
7 | CCC(=O)O [1-^13C-propionate, sodium 1-^13C-propionate] |  |  |  |  | maximal time for maintaining solution stability [2]: two; time within which the majority of the label is oxidized [3]: 15 to 30 min
8 | CC(C)C[C@H](N)[13C](=O)O [L-1-^13C-Leucine] |  |  | 13.54 (1.50) % | 12.44 (3.10) % | 
9 | CC(C)[13C@H](N)C(=O)O [2-^13C-Valine] |  |  | 4.41 (2.63) % | 5.15 (2.19) % | 
10 | N[C@@H](C[13c]1ccccc1)C(=O)O [L-1-^13C-Phenylalanine] |  |  | 10.75 (7.38) % | 5.71 (2.74) % | 

— US20200345268A1, “ISOTOPIC BIOMARKERS OF ORGANIC ACIDEMIAS” (The United States of America, as represented by the …, priority 2017, published 2020)
